# From the supplement of paper PMC10307832
# How the values were obtained:
# Assay in all cases: relative viability (nuclei count vs DMSO), 5 days (fraction); higher = more cells survive
# Neratinib + Bortezomib = compound: CCOc1cc2ncc(C#N)c(Nc3ccc(OCc4ccccn4)c(Cl)c3)c2cc1NC(=O)/C=C/CN(C)C [Neratinib] + CC(C)C[C@H](NC(=O)[C@H](Cc1ccccc1)NC(=O)c1cnccn1)B(O)O [Bortezomib] (partner 0.002 µM)
# Procedure, shortened: (§1)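 Relative viability was taken as the ratio of nuclei in treated wells to nuclei in vehicle wells. Lung cancer cell lines in 1536-well plates received compounds by pin tool one day after seeding, either one drug alone or a fixed anchor-drug dose plus five library-drug doses (not always all listed) in √10 steps. Nuclei were counted on 4× images after 5 days of treatment, and values are medians of duplicate plates.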
# Neratinib + Navitoclax = compound: CCOc1cc2ncc(C#N)c(Nc3ccc(OCc4ccccn4)c(Cl)c3)c2cc1NC(=O)/C=C/CN(C)C [Neratinib] + CC1(C)CCC(c2ccc(Cl)cc2)=C(CN2CCN(c3ccc(C(=O)NS(=O)(=O)c4ccc(N[C@H](CCN5CCOCC5)CSc5ccccc5)c(S(=O)(=O)C(F)(F)F)c4)cc3)CC2)C1 [Navitoclax] (partner 0.5 µM)
# Procedure, shortened: as §1
# Neratinib + Dasatinib = compound: CCOc1cc2ncc(C#N)c(Nc3ccc(OCc4ccccn4)c(Cl)c3)c2cc1NC(=O)/C=C/CN(C)C [Neratinib] + Cc1nc(Nc2ncc(C(=O)Nc3c(C)cccc3Cl)s2)cc(N2CCN(CCO)CC2)n1 [Dasatinib] (partner 0.075 µM)
# Procedure, shortened: as §1
# Neratinib + Luminespib = compound: CCOc1cc2ncc(C#N)c(Nc3ccc(OCc4ccccn4)c(Cl)c3)c2cc1NC(=O)/C=C/CN(C)C [Neratinib] + CCNC(=O)c1noc(-c2cc(C(C)C)c(O)cc2O)c1-c1ccc(CN2CCOCC2)cc1 [Luminespib] (partner 0.01 µM)
# Procedure, shortened: as §1
Cell Line,relative viability (Neratinib + Bortezomib; first compound 0.01 µM),relative viability (Neratinib + Bortezomib; first compound 0.03162 µM),relative viability (Neratinib + Bortezomib; first compound 0.1 µM),relative viability (Neratinib + Bortezomib; first compound 0.3162 µM),relative viability (Neratinib + Bortezomib; first compound 1 µM),relative viability (Neratinib + Navitoclax; first compound 0.01 µM),relative viability (Neratinib + Navitoclax; first compound 0.03162 µM),relative viability (Neratinib + Navitoclax; first compound 0.1 µM),relative viability (Neratinib + Navitoclax; first compound 0.3162 µM),relative viability (Neratinib + Navitoclax; first compound 1 µM),relative viability (Neratinib + Dasatinib; first compound 0.01 µM),relative viability (Neratinib + Dasatinib; first compound 0.03162 µM),relative viability (Neratinib + Dasatinib; first compound 0.3162 µM),relative viability (Neratinib + Dasatinib; first compound 1 µM),relative viability (Neratinib + Luminespib; first compound 0.01 µM),relative viability (Neratinib + Luminespib; first compound 0.03162 µM),relative viability (Neratinib + Luminespib; first compound 0.1 µM),relative viability (Neratinib + Luminespib; first compound 0.3162 µM),relative viability (Neratinib + Luminespib; first compound 1 µM),relative viability (Neratinib + Dasatinib; first compound 0.1 µM)
201T,1.08,1.1,1.06,1.12,1.09,1.26,1.19,1.18,1.22,1.25,0.629,0.539,0.49,0.6,1.08,1.02,0.977,1.1,0.931,
A-427,1.08,0.996,1.02,0.952,0.918,1.06,0.984,0.907,0.879,0.46,0.895,0.74,0.673,0.571,1.23,0.966,0.778,1.02,0.274,0.734
ABC-1,0.297,0.348,0.379,0.3,0.312,,,,,,0.638,,0.455,0.349,0.337,0.659,0.405,0.315,0.278,0.593
BEN,0.844,1.02,0.72,0.615,0.635,0.0747,0.0585,0.0644,0.0753,0.0586,0.329,0.305,0.3,0.414,0.605,0.367,0.378,0.307,0.243,0.319
CAL-12T,0.949,1.01,0.785,0.508,0.335,1.27,1.59,0.94,0.632,0.232,0.325,0.475,0.13,0.122,0.445,0.393,0.291,0.104,0.123,0.212
COR-L23,1.06,1.18,0.888,0.964,0.799,1.16,1.13,1.13,0.968,0.485,0.558,0.602,0.439,0.308,,0.621,0.598,0.606,0.257,0.489
COR-L 105,0.856,0.883,0.429,0.347,0.346,1.01,0.748,0.452,0.226,0.273,0.288,0.353,0.146,0.164,0.862,0.669,0.53,0.35,0.203,0.236
Calu-6,1.1,,0.993,1,0.692,0.833,0.899,0.975,0.734,0.523,,,,,,,,,,
ChaGo-K-1,1.06,1.04,0.873,0.745,0.912,0.986,1,1.02,0.821,0.905,0.561,0.62,0.571,0.544,0.753,0.672,0.604,0.595,,0.555
EBC-1,0.599,0.569,0.541,0.533,0.349,0.439,0.408,0.41,0.339,0.219,,,,,,,,,,
EKVX,1.02,1.18,0.894,0.271,0.184,0.999,1.04,0.831,0.305,0.205,0.632,0.676,0.243,0.253,0.821,0.884,0.708,0.496,0.246,0.443
EMC-BAC-2,1.25,1.13,0.979,0.99,0.889,1.16,1.47,1.01,0.993,0.811,0.368,0.342,0.33,0.248,1.38,1.17,1.08,0.976,0.597,0.302
EPLC-272H,0.841,0.994,0.881,0.775,0.65,1.09,0.991,0.851,0.822,0.834,,0.457,0.208,0.152,,0.616,0.464,0.315,0.135,0.284
H3255,0.776,0.97,0.556,0.225,0.233,0.583,0.74,0.243,0.0785,0.0934,0.38,0.392,0.195,,0.949,0.765,0.669,0.387,0.211,0.283
HARA,1.26,1.15,0.97,0.974,0.79,1.17,1.12,0.562,0.922,0.644,0.303,0.312,0.155,0.148,0.685,0.743,0.662,0.271,0.117,0.196
HCC-15,0.948,1.16,0.932,0.956,0.882,0.697,0.72,0.666,0.625,,0.655,0.676,0.644,0.517,0.347,0.377,0.274,0.339,0.161,0.555
HCC-44,0.997,0.954,0.78,0.931,0.952,1.1,0.978,0.867,0.951,0.917,,,,,1.29,1.23,0.989,1.07,0.524,
HCC-78,0.478,0.446,0.432,0.43,0.301,0.747,,0.702,0.663,0.231,0.5,0.363,0.292,0.276,,,,,,0.342
